These results are taken from patent US11202743B2, “Personal care compositions comprising fatty acid amide derivatives” (Conopco, Inc., priority 2016, dated 2021).

A short description of data set [1]: Effect on solubility of 12 HSA (visual observation). The format is physicochemical.
A further data set deals with human CB1 receptor (Homo sapiens (Human), UniProt P21554). Put plainly: CB1 receptor binding assay, displacement of 3H CP-55,940 from membrane preparation. Conditions: inhibition of 3H CP-55,940 binding (1 nM), human CB1 membranes. On the procedure: (§1) The ability of the compounds according to some embodiments of the present invention to inhibit a radiolabeled cannabinoid ligand, CP-55,940, [Side chain-2,3,4(N)-3H(N)]-(Perkin-Elmer Cat. # NET1051) to either the human CB1 receptor or CB2 receptor was determined according to the manufacturer's instructions in the commercially available membrane preparations from Perkin Elmer (Cat Nos. RBHCB1M400UA and RBXCB2M400UA). Briefly, pre-treatment of the glass fiber membrane of a Matrix 96 well GFC filtration microtiter plate was done in order to help reduce non-specific binding of the radioligand to the GFC membrane. This was done by adding 150 μl of 0.5% polyethylimine (PEI) to each well and letting this remain in the plate for at least 4 hours before using it to terminate the binding reaction. The actual binding reaction was performed in a polypropylene (PP) round bottom 96-well microtiter plate. Briefly, 55 μl of assay buffer (50 mM TRIS pH7.4, 2.5 mM EGTA, 5 mM MgCl2, 120 mM NaCl, 0.1% Fatty acid free BSA) was added to each well, followed by 20 μl of a 0.4 mg/ml CB1 or CB2 membrane suspension (8 μg membrane per well). To initiate the reaction, 20 μl of 5 nM ^3H CP-55,940 (1 nM final concentration) was added to each well. Nonspecific binding was defined in the presence of 20 μM unlabeled WIN 55212 (Sigma cat. W-102). ACEA was routinely used as a positive control for both assays. The plate was shaken on an orbital plate shaker and the binding reaction proceeded until equilibrium was reached after 3 hours at room temperature. Using a Multiscreen vacuum manifold, the PEI was filtered through the GFC filter plate. The binding reaction in the PP plate was mixed by aspirating the reaction contents of each well and dispensing back into the plate. This was repeated 4 times and then 75 μl of the reaction mixture was transferred to the GFC plate. This procedure could be done row by row with the use of a multichannel pipette, or all at once if using automation. Once the entire content of the PP plate was transferred to the GFC plate, the binding reactions were terminated by filtering thru the GFC plate. The filter plate was then washed by adding 100 μl ice-cold wash buffer 50 mM TRIS pH 7.4, 2.5 mM EGTA, 5 mM MgCl2, 120 mM NaCl, 2% Fatty acid free BSA) to each well and filtering through. This was repeated 8 times, after which the filter mat was allowed to dry. Once the filter mat was dry, 50 μl of Microscint scintillation cocktail was added to each well, allowed to sit for 15-20 min, and the plate read on a Microbeta2 scintillation counter.
human CB1 receptor, sequence (P21554 whole entry): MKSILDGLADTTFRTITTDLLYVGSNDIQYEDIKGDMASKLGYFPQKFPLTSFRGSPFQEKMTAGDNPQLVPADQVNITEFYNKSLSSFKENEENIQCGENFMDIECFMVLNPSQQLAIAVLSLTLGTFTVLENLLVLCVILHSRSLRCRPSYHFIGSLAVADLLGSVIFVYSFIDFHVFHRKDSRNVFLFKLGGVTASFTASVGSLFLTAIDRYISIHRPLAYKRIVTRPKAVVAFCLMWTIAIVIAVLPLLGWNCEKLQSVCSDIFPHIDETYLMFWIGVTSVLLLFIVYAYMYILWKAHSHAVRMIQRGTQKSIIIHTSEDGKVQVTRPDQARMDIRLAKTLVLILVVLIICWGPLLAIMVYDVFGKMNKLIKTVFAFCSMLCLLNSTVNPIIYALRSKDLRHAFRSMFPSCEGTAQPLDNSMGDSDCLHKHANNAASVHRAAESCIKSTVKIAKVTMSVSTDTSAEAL
(§2) The lower the IC50 value, the higher the binding.
(Displacement assays read how much labelled ligand stays bound in the presence of the test substance.)

The target of data set [2] is recombinant human FAAH enzyme (Homo sapiens (Human), UniProt O00519). Description: FAAH inhibition assay (Cayman Chemicals kit, AMC-arachidonoyl amide hydrolysis, fluorescence). The data set is classed as biochemical. The procedure:
The ability of the compounds according to some embodiments of the present invention to inhibit FAAH was determined according to the methods disclosed a commercially available kit from Cayman Chemicals (Cayman Cat. No. 10005196). The kit utilizes recombinant human FAAH enzyme which hydrolyzes AMC-arachidonoyl amide resulting in the release of the fluorescent product, 7-amino-4-methylcoumarin (AMC). The fluorophore was detected via fluorescence, using an excitation wavelength of 340-360 nm and an emission wavelength of 450-465 nm. The assay was followed as described in the kit manual, which can be found on the webpage of Cayman Chemicals.

The target of the next data set is human CB2 receptor (Homo sapiens (Human), UniProt P34972). Put plainly: CB2 receptor binding assay, displacement of 3H CP-55,940 from membrane preparation. Conditions: inhibition of 3H CP-55,940 binding (1 nM), human CB2 membranes. The procedure:
as §1, §2

Data set [3] relates to serotonin-induced scratches (itch). The note with it: mice; cited from earlier work.
[4] abbreviates: 41.18% Tween 60, 29.41% 12-HSA, 29.41% compound.
The mark [5] stands for this setting: 41.67% Tween 60, 41.67% 12-HSA, 16.67% compound.
Where [6] appears, read: 41.18% Tween 20, 29.41% 12-HSA, 29.41% compound.
The mark [7] stands for this setting: 48.28% Tween 20, 34.48% 12-HSA, 17.24% compound.

The term IC50 denotes the concentration that inhibits the measured activity by half.

recombinant human FAAH enzyme, sequence (O00519 whole entry): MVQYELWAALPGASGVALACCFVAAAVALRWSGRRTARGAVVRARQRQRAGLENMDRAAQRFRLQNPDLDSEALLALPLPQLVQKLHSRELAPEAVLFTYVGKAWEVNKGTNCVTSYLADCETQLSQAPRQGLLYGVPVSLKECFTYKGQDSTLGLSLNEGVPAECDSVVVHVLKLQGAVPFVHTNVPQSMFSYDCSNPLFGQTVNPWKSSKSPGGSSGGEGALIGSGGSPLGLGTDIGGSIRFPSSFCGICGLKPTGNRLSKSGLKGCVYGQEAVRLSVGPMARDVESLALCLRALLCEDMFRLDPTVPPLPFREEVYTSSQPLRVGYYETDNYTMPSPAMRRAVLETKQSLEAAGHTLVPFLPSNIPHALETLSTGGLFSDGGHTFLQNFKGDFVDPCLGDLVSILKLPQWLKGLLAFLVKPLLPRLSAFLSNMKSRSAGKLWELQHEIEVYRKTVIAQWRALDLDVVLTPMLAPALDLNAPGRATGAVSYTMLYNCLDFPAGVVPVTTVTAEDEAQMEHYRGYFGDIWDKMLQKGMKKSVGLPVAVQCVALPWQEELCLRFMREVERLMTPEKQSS
human CB2 receptor, sequence (P34972 whole entry): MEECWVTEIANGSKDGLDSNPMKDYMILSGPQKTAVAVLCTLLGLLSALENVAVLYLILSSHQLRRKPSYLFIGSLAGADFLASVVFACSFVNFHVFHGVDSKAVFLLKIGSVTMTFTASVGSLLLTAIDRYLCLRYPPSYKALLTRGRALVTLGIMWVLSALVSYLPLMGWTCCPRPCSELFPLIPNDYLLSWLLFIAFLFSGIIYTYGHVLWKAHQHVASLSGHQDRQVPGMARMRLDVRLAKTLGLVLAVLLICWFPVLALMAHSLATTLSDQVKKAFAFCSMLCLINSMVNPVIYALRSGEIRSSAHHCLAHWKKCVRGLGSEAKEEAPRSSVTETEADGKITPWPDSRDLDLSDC

In the case of `CCCCCCC(O)C/C=C\CCCCCCCC(=O)NC(CCC(=O)O)C(=O)O` (centres unmarked) [Compound 15], the Observation entry in data set [1] (setting [4]) and in data set [1] (setting [5]) was “translucent” each time.
As to `CCCCCCC(O)CCCCCCCCCCC(=O)NCC(=O)O` (centres unmarked) [Compound 18], on human CB1 receptor, the “CB1 IC50” value is “no binding activities”. For the same compound, the IC50 in data set [2] is 46 µM. Also, the Observation entry in data set [1] (48.39% Tween 60, 48.39% 12-HSA, 3.23% compound) is given as “translucent”. Besides, at human CB2 receptor, the “CB2 IC50” value is “no binding activities”.
With `CCCCC/C=C\C=C\CCCCCCCCC(=O)NC(CCC(=O)O)C(=O)O` (centres unmarked) [Compound 11], the “CB1 IC50” value at human CB1 receptor is on record as “No binding”. Further, the “FAAH IC50” value in data set [2] is given as “No binding”. In addition, the Observation entry in data set [1] (setting [4]) is “translucent/clear”; in data set [1] (setting [5]) it was “translucent”. In addition, the “CB2 IC50” value on human CB2 receptor is on record as “No binding”.
For `CCCCC/C=C\C=C\CCCCCCCCC(=O)NC(C)C(=O)O` (centres unmarked) [Compound 2], on human CB1 receptor, the “CB1 IC50” value is reported as “No binding”. The IC50 in data set [2] was determined as 2.6 µM. In addition, on human CB2 receptor, the “CB2 IC50” value was “No binding”.
Take `CCCCCCC(O)C/C=C\CCCCCCCC(=O)NCC(=O)O` (centres unmarked) [Compound 14]: on human CB1 receptor, the “CB1 IC50” value is “no binding activities”. Moreover, in data set [2], the IC50 was 26 µM. The Observation entry in data set [1] (setting [6]) and in data set [1] (setting [4]) was “translucent” each time. Further, the “CB2 IC50” value on human CB2 receptor is listed as “no binding activities”.
As to `CCCCC/C=C\C=C\CCCCCCCCC(=O)NC(Cc1ccccc1)C(=O)O` (centres unmarked) [Compound 8], the “CB1 IC50” value on human CB1 receptor is listed as “No binding”. For the same compound, the IC50 in data set [2] is 11 µM. Also, the “CB2 IC50” value at human CB2 receptor is listed as “No binding”.
As for `CCCCCC/C=C/C=C\CCCCCCCC(=O)NCC(=O)O` [Compound 5], the “CB1 IC50” value at human CB1 receptor is reported as “No binding”. For the same compound, the IC50 in data set [2] was 3.5 µM. Also, the Observation entry in data set [1] (33.33% Tween 20, 41.67% 12-HSA, […] compound) is given as “translucent”; in data set [1] (40% Tween 20, 30% 12-HSA, 10% compound) it was “translucent”; in data set [1] (40.00% Tween 20, 40% 12-HSA, 20% compound), “translucent”; in data set [1] (setting [7]), “translucent”; in data set [1] (48.28% Tween 60, 34.48% 12-HSA, 17.24% compound), “translucent”. The “CB2 IC50” value at human CB2 receptor is on record as “No binding”.
`CCCCCC/C=C/C=C/CCCCCCCC(=O)NC(CC(=O)O)Cc1c[nH]cn1` (centres unmarked) [Compound 10]: the IC50 was determined as 13 µM in data set [2] and 38 µM on human CB2 receptor.
For `CCCCC/C=C\C=C\CCCCCCCCC(=O)NCC(Cc1c[nH]cn1)C(=O)O` (centres unmarked) [Compound 9], in that order: 13 µM and 38 µM.
As to `CCCCCCC(O)C/C=C\CCCCCCCC(=O)NC(C)C(=O)O` (centres unmarked) [Compound 12], the “CB1 IC50” value on human CB1 receptor is listed as “no binding activities”. In addition, the IC50 in data set [2] turned out to be 42 µM. For the same compound, the Observation entry in data set [1] (setting [6]) and in data set [1] (setting [4]) was “translucent” each time. Besides, the “CB2 IC50” value at human CB2 receptor is listed as “no binding activities”.
In the case of `CCCCCCC(O)CCCCCCCCCCC(=O)NC(CCC(=O)O)C(=O)O` (centres unmarked) [Compound 19], the Observation entry in data set [1] (50.00% Tween 60, 35.71% 12-HSA, 14.29% compound) was “translucent”.
On to `NC(=O)c1cccc(-c2cccc(OC(=O)NC3CCCCC3)c2)c1` [URB597], for which, in data set [3], the “Serotonin-induced scratches (itch)” value is given as “attenuate”.
As to `CCCCCCC(O)CCCCCCCCCCC(=O)NC(C)C(=O)O` (centres unmarked) [Compound 17], the “CB1 IC50” value on human CB1 receptor is reported as “no binding activities”. Also, in data set [2], the IC50 worked out at 40 µM. The “CB2 IC50” value on human CB2 receptor is on record as “no binding activities”.
Consider `CCCCC/C=C\C=C\CCCCCCCCC(=O)NCCC(=O)O` [Compound 4], for which the results for the IC50 (on human CB1 receptor; in data set [2]; on human CB2 receptor) were 22 µM, 2.8 µM and 26 µM, respectively.
In the case of `CCCCCCC(O)C/C=C\CCCCCCCC(=O)NC(C(=O)O)C(C)CC` (centres unmarked) [Compound 13], the Observation result in data set [1] (setting [4]) is recorded as “translucent”.
Consider `CCCCCC/C=C/C=C\CCCCCCCC(=O)NC(Cc1ccccc1)C(=O)O` (centres unmarked) [Compound 7], for which the “CB1 IC50” value on human CB1 receptor is “No binding”. Moreover, the IC50 in data set [2] is 11 µM. Besides, the “CB2 IC50” value at human CB2 receptor is “No binding”.
“conjugated linoleyl glycinate acid [Compound 1]”: at human CB1 receptor, the “CB1 IC50” value is “No binding”. The half-inhibitory concentration (IC50) in data set [2] amounted to 2.6 µM. In addition, the “CB2 IC50” value on human CB2 receptor was “No binding”.
`CCCCCCC(O)CCCCCCCCCCC(=O)NC(CC(=O)O)C(=O)O` (centres unmarked) [Compound 16]: the Observation entry in data set [1] (45.16% Tween 60, 38.71% 12-HSA, 16.13% compound) is “translucent”.
With `CCCCC/C=C\C=C\CCCCCCCCC(=O)NCC(=O)O` [Compound 6], the “CB1 IC50” value on human CB1 receptor was “No binding”. In addition, the IC50 in data set [2] turned out to be 3.5 µM. Besides, the “CB2 IC50” value on human CB2 receptor is “No binding”.
On to `CCCCCC/C=C/C=C/CCCCCCCC(=O)NCCC(=O)O` [Compound 3], for which the IC50 at human CB1 receptor stood at 22 µM; in data set [2], 2.8 µM; at human CB2 receptor, 26 µM. Further, the Observation result in data set [1] (setting [7]) was “translucent”.
